{"source": "patent US12338270B2", "about": "“Pharmaceutical composition comprising polypeptide” (D&D Pharmatech Inc., priority 2018, dated 2025)", "key": {"[1]": {"target": "human glucagon GLP-1 receptor (Homo sapiens, UniProt P43220)", "sequence (P43220 24-463)": "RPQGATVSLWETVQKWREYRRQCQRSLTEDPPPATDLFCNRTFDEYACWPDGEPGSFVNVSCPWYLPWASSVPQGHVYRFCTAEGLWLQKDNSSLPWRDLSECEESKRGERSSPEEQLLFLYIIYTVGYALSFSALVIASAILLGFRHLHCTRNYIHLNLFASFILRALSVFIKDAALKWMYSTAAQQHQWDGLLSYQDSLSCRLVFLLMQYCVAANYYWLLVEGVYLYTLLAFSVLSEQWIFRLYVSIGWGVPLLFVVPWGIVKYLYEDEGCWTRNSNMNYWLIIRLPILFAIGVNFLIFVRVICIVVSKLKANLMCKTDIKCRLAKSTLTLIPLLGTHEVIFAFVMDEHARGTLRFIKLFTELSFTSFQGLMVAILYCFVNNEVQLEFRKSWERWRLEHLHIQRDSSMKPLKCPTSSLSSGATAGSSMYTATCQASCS", "experiment": "cell-based", "quoted_text": "Thereafter, the cells were incubated for 4 hours under conditions of a temperature of 37° C. in a CO2 incubator."}, "[2]": {"experiment": "animal experiment on anti-obesity effect of Example 1", "assay_type": "in vivo", "settings": "no details"}, "[3]": {"target": "T1, Pancreatic lipase (Homo sapiens, UniProt P16233)", "T1 sequence (P16233 17-465)": "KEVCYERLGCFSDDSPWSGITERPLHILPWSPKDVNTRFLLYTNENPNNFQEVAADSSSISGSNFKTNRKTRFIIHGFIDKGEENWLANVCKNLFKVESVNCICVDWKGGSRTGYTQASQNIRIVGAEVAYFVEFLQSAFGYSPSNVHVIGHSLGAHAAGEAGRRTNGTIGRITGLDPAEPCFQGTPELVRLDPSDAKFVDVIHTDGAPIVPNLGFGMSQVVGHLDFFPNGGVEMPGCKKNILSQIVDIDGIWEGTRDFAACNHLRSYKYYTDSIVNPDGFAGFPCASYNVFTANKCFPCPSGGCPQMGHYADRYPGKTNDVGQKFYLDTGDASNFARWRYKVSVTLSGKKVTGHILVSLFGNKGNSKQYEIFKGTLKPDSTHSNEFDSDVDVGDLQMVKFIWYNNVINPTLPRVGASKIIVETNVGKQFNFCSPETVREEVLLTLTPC", "settings": "background statement; cited from earlier work"}, "[4]": {"system": "obesity animal model (C57BL/6 mice, 60% high-fat diet)", "experiment": "blood glucose in obesity model, Examples 2 and 6 (Experimental Example 6)", "assay_type": "in vivo", "settings": "20 nmol/kg s.c. once every other day for 2 weeks; FIG. 5", "method": "(§1) To check a preventing or therapeutic effect of the conjugates of Examples 2 and 6, which had different amino acid sequences, on obesity or diabetes, an animal model of obesity was prepared by feeding a 60% high-fat diet to normal C57BL/6 mice (approximately 6 weeks old) for approximately 24 weeks, and increasing the body weights of the mice to approximately 50 g in average. Thereafter, each of the conjugates of Examples 2 or 6 was administered by subcutaneous injection at a dose of 20 nmol/kg once every other day for 2 weeks. As the control, PBS was administered instead of the conjugates of Examples. For 2 weeks when the conjugates of Examples 2 or 6 were administered, changes in blood glucose with time were measured. Also, to perform an intraperitoneal glucose tolerance test (ipGTT), 2 g/kg of glucose was administered intraperitoneally after the 2-week administration of the drug, and changes in blood glucose with the elapse of time (0, 15, 30, 60, 90, and 120 minutes) were measured."}, "[5]": {"system": "obesity animal model (C57BL/6 mice, 60% high-fat diet)", "experiment": "ipGTT in obesity model, Examples 2 and 6 (Experimental Example 6)", "assay_type": "in vivo", "settings": "2 g/kg glucose i.p. after 2 weeks of 20 nmol/kg s.c. once every other day; FIG. 6", "method": "as §1"}}, "note": "Positions of bridges follow the written chain, without caps; N, C: chain ends. Non-standard residues stand in square brackets, D forms with d. Residues, ends and D or L forms follow the SMILES beside them. No end group written: not given here. Aib = CC(C)(N)C(=O)O", "data": [{"compound": "CSCC[C@H](NC(=O)[C@H](CC(C)C)NC(=O)[C@H](Cc1c[nH]c2ccccc12)NC(=O)[C@H](CCC(N)=O)NC(=O)[C@@H](NC(=O)[C@H](Cc1ccccc1)NC(=O)[C@H](CCC(=O)O)NC(=O)[C@@H]1CCCCNC(=O)CC[C@H](NC(=O)[C@H](CC(=O)O)NC(=O)[C@H](CC(C)C)NC(=O)[C@H](Cc2ccc(O)cc2)NC(=O)[C@H](CCCCN)NC(=O)[C@H](CO)NC(=O)[C@H](Cc2ccc(O)cc2)NC(=O)[C@H](CC(=O)O)NC(=O)[C@H](CO)NC(=O)[C@@H](NC(=O)[C@H](Cc2ccccc2)NC(=O)[C@@H](NC(=O)CNC(=O)[C@H](CCC(N)=O)NC(=O)C(C)(C)NC(=O)[C@@H](N)Cc2c[nH]cn2)[C@@H](C)O)[C@@H](C)O)C(=O)N[C@@H](CCC(N)=O)C(=O)N[C@@H](C)C(=O)N[C@@H](C)C(=O)N1)C(C)C)C(=O)N[C@@H](CC(N)=O)C(=O)N[C@H](C(=O)N[C@@H](CS)C(=O)O)[C@@H](C)O", "note": "[Example 1] (H-H[Aib]QGTFTSDYSKYLDEQAAKEFVQWLMNTC-OH; lactam 16-20 (inferred); N-terminus and C-terminus assumed)", "values": [{"measurement": "EC50", "setting": "[1]", "value": 0.13, "unit": "nM"}, {"measurement": "anti-obesity effect", "setting": "[2]", "value": "had an anti-obesity effect"}]}, {"compound": "CCCCCCCCCCC[C@@H](C[C@@H]1OC(=O)[C@H]1CCCCCC)OC(=O)[C@H](CC(C)C)NC=O", "note": "[tetrahydrolipstatin (orlistat), tetrahydrolipstatin]", "values": [{"measurement": "inhibition of absorption of ingested fats", "setting": "[3]", "value": "approximately 30%"}]}, {"compound": "Example 6: Conjugate of polypeptide H(Aib)QGTFTSDYSKYLDEEAVKEFVQWLMNTC (SEQ ID NO. 4) and tri-branched mPEG-MAL (MW: 50 kDa) (H[Aib]QGTFTSDYSKYLDEEAVKEFVQWLMNTC; not fully specified (residue 30, bridges); printed as H(Aib)QGTFTSDYSKYLDEEAVKEFVQWLMNTC; also: conjugate with tri-branched mPEG-MAL 50 kDa)", "values": [{"measurement": "level of blood glucose vs control", "setting": "[4]", "value": "a level of blood glucose was lowered"}, {"measurement": "increase in blood glucose in ipGTT vs control", "setting": "[5]", "value": "an increase in blood glucose was significantly reduced"}]}]}
